In the supplement of paper PMC10307832:

Tests used:
Assay in all cases: relative viability (nuclei count vs DMSO), 5 days (fraction); higher = more cells survive
Motesanib + OSI-027 = compound: CC1(C)CNc2cc(NC(=O)c3cccnc3NCc3ccncc3)ccc21 [Motesanib] + COc1cccc2cc(-c3nc([C@H]4CC[C@H](C(=O)O)CC4)n4ncnc(N)c34)[nH]c12 [OSI-027] (partner 0.5 µM)
Method in brief: (§1)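 Five library-drug doses in √10 steps were combined with a fixed anchor-drug dose, or a single drug was given alone, by pin tool to lung cancer cell lines in 1536-well plates the day after seeding. Nuclei were stained and counted after 5 days. Relative viability is the nuclei count in treated wells over that in vehicle wells, taken as the median of duplicate plates.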

Motesanib + Luminespib = compound: CC1(C)CNc2cc(NC(=O)c3cccnc3NCc3ccncc3)ccc21 [Motesanib] + CCNC(=O)c1noc(-c2cc(C(C)C)c(O)cc2O)c1-c1ccc(CN2CCOCC2)cc1 [Luminespib] (partner 0.01 µM)
Method in brief: as §1

Motesanib + Dasatinib = compound: CC1(C)CNc2cc(NC(=O)c3cccnc3NCc3ccncc3)ccc21 [Motesanib] + Cc1nc(Nc2ncc(C(=O)Nc3c(C)cccc3Cl)s2)cc(N2CCN(CCO)CC2)n1 [Dasatinib] (partner 0.075 µM)
Method in brief: as §1

Motesanib + Tozasertib = compound: CC1(C)CNc2cc(NC(=O)c3cccnc3NCc3ccncc3)ccc21 [Motesanib] + Cc1cc(Nc2cc(N3CCN(C)CC3)nc(Sc3ccc(NC(=O)C4CC4)cc3)n2)n[nH]1 [Tozasertib] (partner 0.1 µM)
Method in brief: as §1

UMC-11
relative viability (Motesanib + OSI-027; first compound 0.01 µM): 0.461
relative viability (Motesanib + OSI-027; first compound 0.03162 µM): 0.466
relative viability (Motesanib + OSI-027; first compound 0.1 µM): 0.38
relative viability (Motesanib + OSI-027; first compound 0.3162 µM): 0.503
relative viability (Motesanib + OSI-027; first compound 1 µM): 0.51
relative viability (Motesanib + Luminespib; first compound 0.01 µM): 0.987
relative viability (Motesanib + Luminespib; first compound 0.03162 µM): 1.07
relative viability (Motesanib + Luminespib; first compound 0.1 µM): 0.927
relative viability (Motesanib + Luminespib; first compound 0.3162 µM): 1.12
relative viability (Motesanib + Luminespib; first compound 1 µM): 1.17
relative viability (Motesanib + Dasatinib; first compound 0.01 µM): 0.435
relative viability (Motesanib + Dasatinib; first compound 0.03162 µM): 0.447
relative viability (Motesanib + Dasatinib; first compound 0.1 µM): 0.489
relative viability (Motesanib + Dasatinib; first compound 0.3162 µM): 0.477
relative viability (Motesanib + Dasatinib; first compound 1 µM): 0.471
relative viability (Motesanib + Tozasertib; first compound 0.01 µM): 0.205
relative viability (Motesanib + Tozasertib; first compound 0.03162 µM): 0.213
relative viability (Motesanib + Tozasertib; first compound 0.1 µM): 0.216
relative viability (Motesanib + Tozasertib; first compound 0.3162 µM): 0.207
relative viability (Motesanib + Tozasertib; first compound 1 µM): 0.228
